What was measured:
Settings in all cases: exposure time 48 h
[1] = tested on: Caenorhabditis elegans N2; assay: mean nematode size ln(EXT) after 48 h, plate-adjusted (DMSO control set to 6) (ln(EXT), control-adjusted); higher = larger nematodes / less growth inhibition
Summary of the method: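 Chemical at 0.5–200 µM was tested on synchronised C. elegans N2 L1 larvae grown for 48 h at 20°C in K-medium with killed OP50 and 1% DMSO. Per-worm Biosort extinction, cleared of debris by a growth model, was natural-logged and averaged per well to give mean size. Plates were normalised by subtracting the vehicle control mean and adding 6.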

[2] = tested on: Caenorhabditis elegans N2; assay: lowest effective concentration for larval growth inhibition (size below effect threshold); higher = less potent
Summary of the method: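 Each well of a 96-well plate received 50 C. elegans N2 L1 larvae, which grew for 48 h at 20°C in K-medium containing killed bacteria, 1% DMSO and the chemical at 0.5, 1, 5, 10, 50, 100 or 200 µM. A Biosort recorded the extinction of every worm as its size, and these readings were log-transformed and averaged per well. The lowest effective concentration is defined as the first dose at which the plate-adjusted mean size falls below the threshold and stays below it at all higher doses; that threshold is 5.665.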

[3] = tested on: Caenorhabditis elegans N2; assay: AC50 for larval growth inhibition (Hill fit); higher = less potent
Summary of the method: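 Synchronised C. elegans N2 L1 larvae, 50 per well in 96-well plates, were grown at 20°C for 48 h in K-medium with killed OP50, 1% DMSO and 0.5–200 µM chemical. Worm size was read on a COPAS Biosort as extinction, log-transformed and averaged per well, and only wells holding at least 10 worms were kept. AC50 was obtained by a constrained Hill fit using weighted genetic-algorithm regression, with out-of-range values censored.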

| SMILES | mean nematode size ln(EXT) (ln) ([1]; 0.5 µM) | mean nematode size ln(EXT) (ln) ([1]; 1 µM) | mean nematode size ln(EXT) (ln) ([1]; 5 µM) | mean nematode size ln(EXT) (ln) ([1]; 10 µM) | mean nematode size ln(EXT) (ln) ([1]; 50 µM) | mean nematode size ln(EXT) (ln) ([1]; 100 µM) | mean nematode size ln(EXT) (ln) ([1]; 200 µM) | lowest effective concentration [2] [µM] | AC50 for larval growth inhibition [3] [µM] |
| --- | --- | --- | --- | --- | --- | --- | --- | --- | --- |
| CCOC(=O)C(C)(C)Oc1ccc(Cl)cc1 [Clofibrate] | 6.01 | 5.8 | 5.86 | 5.81 | 5.75 | 5.78 | 5.54 | 200 | > 200 |
| CCc1c(C(=O)NN2CCCCC2)nn(-c2ccc(Cl)cc2Cl)c1-c1ccc(Br)cc1 [Surinabant] | 5.77 | 5.74 | 5.6 | 5.44 | 5.2 | 5.06 | 4.77 | 5 | > 200 |
| OC[C@@H](O)[C@@H](O)[C@H](O)[C@H](O)CO [D-Mannitol] | 5.94 | 5.89 | 5.93 | 5.96 | 5.93 | 5.94 | 5.42 | 200 | > 200 |
| O=[N+]([O-])c1c(Cl)c(Cl)c(Cl)c(Cl)c1Cl [Quintozene] | 5.85 | 5.74 | 5.72 | 5.88 | 5.93 | 5.94 | 5.11 | 200 | 194 |
| CCCCC(CC)COC(=O)CC(C(=O)OCC(CC)CCCC)S(=O)(=O)O (configuration not stated) [Docusate sodium] | 5.96 | 5.98 | 5.93 | 5.93 | 4.65 | 4.05 | 3.28 | 50 | 57.1 |
| CC1(C)C(C=C(Cl)Cl)C1C(=O)OC(C#N)c1cccc(Oc2ccccc2)c1 (configuration not stated) [Cypermethrin] | 6.09 | 6.11 | 6.12 | 6.03 | 5.88 | 5.71 | 5.17 | 200 | > 200 |
| NC(=Nc1ccccc1)Nc1ccccc1 [1,3-Diphenylguanidine] | 5.67 | 5.74 | 5.62 | 5.6 | 5.63 | 5.64 | 5.55 | 5 | 16.6 |
| CCCCCCCCOC(=O)c1ccc(C(=O)OCCCCCCCC)c(C(=O)OCCCCCCCC)c1 [Tri (n-octyl) Trimellitate] | 5.86 | 5.93 | 5.95 | 5.85 | 5.91 | 5.92 | 5.64 | 200 | > 200 |
| O=P(OC(CCl)CCl)(OC(CCl)CCl)OC(CCl)CCl [Tris(1,3-dichloro-2-propyl) phosphate (TDCPP)] | 5.85 | 5.86 | 5.83 | 5.77 | 5.39 | 4.98 | 3.63 | 50 | 117 |
| O=[N+]([O-])c1ccc(Oc2ccc(Cl)cc2Cl)cc1 [2,4-dichloro-1-(4-nitrophenoxy)benzene] | 5.88 | 5.74 | 5.03 | 3.93 | 3.8 | 3.76 | 4.04 | 5 | 5.16 |
| CC(C)=CC1C(C(=O)OCc2coc(Cc3ccccc3)c2)C1(C)C (configuration not stated) [Resmethrin] | 5.75 | 5.64 | 5.46 | 5.58 | 5.84 | 5.8 | 4.98 | 200 | > 200 |
| O=S(=O)(O)C(F)(F)C(F)(F)C(F)(F)C(F)(F)C(F)(F)C(F)(F)C(F)(F)C(F)(F)F [Perfluorooctane sulfonic acid] | 5.78 | 5.91 | 5.28 | 5.06 | 4.32 | 4.28 | 3.33 | 5 | 17.4 |
| OC12N=C(c3ccccc3)SC1Cc1cc(Cl)ccc12 (configuration not stated) | 5.69 | 5.74 | 5.5 | 5.45 | 4.53 | 4.08 | 3.96 | 5 | 48.6 |
| CC(=O)S[C@H](C(=O)N[C@H]1Cc2ccccc2[C@H]2CCC[C@@H](C(=O)O)N2C1=O)C(C)C [Ilepatril] | 5.89 | 5.83 | 5.76 | 5.88 | 5.84 | 5.8 | 5.58 | 200 | > 200 |
| Clc1cc(Cl)c(Cl)cc1Cl [1,2,4,5-Tetrachlorobenzene] | 5.97 | 5.98 | 6.07 | 6.11 | 5.34 | 4.83 | 3.82 | 50 | 110 |
| c1ccc2[nH]c(-c3cscn3)nc2c1 [Thiabendazole] | 6.04 | 6.23 | 6.02 | 5.98 | 5.78 | 5.93 | 4.91 | 200 | > 200 |
| Clc1ccc(C(c2ccc(Cl)cc2)C(Cl)(Cl)Cl)cc1 [p,p'-DDT] | 6 | 5.91 | 4.31 | 3.75 | 3.44 | 3.36 | 3.29 | 5 | 3.83 |
| CC(C)(C)c1ccc(CSc2cnn(C(C)(C)C)c(=O)c2Cl)cc1 [Pyridaben] | 4.73 | 4.44 | 4.31 | 4.22 | 4.14 | 3.92 | 3.87 | ≤ 0.5 | < 0.5 |

Reference: the supplement of paper PMC4858399
